Assay results from patent US20250263370A1 (Tay Therapeutics Limited, priority 2022, published 2025).
Read-outs that look alike come from different tables or passages of the source.

Test: Beagle dog PK study 1 of Example 101 (propylene glycol-based formulation, IV and PO), with clinical observations
Assay type: in vivo
Details: for concentration at 0.083 h / concentration at 0.25 h / concentration at 0.5 h / concentration at 1 h / concentration at 2 h / concentration at 4 h / concentration at 8 h / concentration at 24 h / AUC(0-inf) / AUC(0-t) / C0 / half-life / MRT inf / Vd / Cmax / Tmax: beagle, dog, plasma; for concentration at 0.083 h / concentration at 0.25 h / concentration at 0.5 h / concentration at 1 h / concentration at 2 h / concentration at 4 h / concentration at 8 h / concentration at 24 h: dog PK study 1, IV; for MRT inf: read-out: MRTInf—obs; for Vd: read-out: Vss—obs; for animal's temperature: test animal 3 in group 1 (1 mg/kg IV)
Experimental: The purpose of this study was to examine the pharmacokinetics of Example 101 in beagle dogs. […] An oral PK study was also undertaken in Lewis rats—see Experimental Method C.
Body weight was recoded prior to dosing, and detailed clinical observations were made prior to dosing and throughout the study, as needed.
Subsequently, 17.320 mL Vitamin E TPGS was added, and the solution was vortexed and sonicated. Then, 51.960 mL water was added, and solution was then heated. […] Subsequently, 39.894 mL Vitamin E TPGS was added, and the solution was vortexed and sonicated. Then, 119.682 mL water was added, and the solution was heated.
Blood samples (˜0.3 mL) were collected according to a schedule (detailed below) by venipuncture of peripheral veins except for the dosing vein, and EDTA-K2 was used as anticoagulant. Within 30 minutes of collection, the samples were centrifuged at approximately 2000×g for 10 minutes at 4° C. to obtain blood plasma. The plasma samples were immediately divided into two aliquots (˜75 μL each), transferred to a cryogenic vial, and stored in a freezer at −75±15° C. prior to analysis. […]
The experiments were conducted on a Shimadzu DGU-20A5R and AB API 5500+LC/MS/MS instrument with an Agilent Poroshell EC-C18 4 μm (50×2.1 mm) column. A gradient of 95% water (0.1% formic acid)/95% acetonitrile (0.1% formic acid) was used as the mobile phase. The sample injection volume was 1 μL, and the flow rate was 0.6 mL/min. The gathered data were used for pharmacokinetic calculations using T½, C0, AUClast, AUCinf, MRTinf, CI, Vss, and Number of Points for Regression as parameters.

[1] = iv, 1 mg/kg, Test Animal 1, read-out: Plasma concentration
[2] = iv, 1 mg/kg, Test Animal 2, read-out: Plasma concentration
[3] = iv, 1 mg/kg, Test Animal 3, read-out: Plasma concentration
[4] = iv, 1 mg/kg, mean, read-out: Average plasma concentration, Mean
[5] = iv, 1 mg/kg, dog PK study 1, intravenous, Test Animal 1
[6] = iv, 1 mg/kg, dog PK study 1, intravenous, Test Animal 2
[7] = iv, 1 mg/kg, dog PK study 1, intravenous, Test Animal 3
[8] = iv, 1 mg/kg, dog PK study 1, intravenous, mean
[9] = po, 5 mg/kg, dog PK study 1, oral, Test Animal 1
[10] = po, 5 mg/kg, dog PK study 1, oral, Test Animal 2
[11] = po, 5 mg/kg, dog PK study 1, oral, Test Animal 3
[12] = po, 5 mg/kg, dog PK study 1, oral, mean
[13] = dog PK study 1, intravenous, Test Animal 1
[14] = dog PK study 1, intravenous, Test Animal 2
[15] = dog PK study 1, intravenous, Test Animal 3
[16] = dog PK study 1, intravenous, mean
[17] = dog PK study 1, oral, Test Animal 1
[18] = dog PK study 1, oral, Test Animal 2
[19] = dog PK study 1, oral, Test Animal 3

CNC(=O)c1[nH]c(C(=O)NC2CCC2)cc1O[C@@H](C)c1ccccc1 (stereo in doubt) [Example 101, N^5-cyclobutyl-N^2-methyl-3-(1-phenylethoxy)-1H-pyrrole-2,5-dicarboxamide]
plasma concentration as a function of time (FIG. 1A) (beagle dogs, 1 mg/kg IV, group 1): Decreases in plasma concentration were consistent across all animals and timepoints | time post-administration at which plasma concentrations began to steadily decrease (FIG. 1B) (beagle dogs, 5 mg/kg PO, group 2): approximately 1 h | tolerability (beagle dogs, PK studies 1 and 2, oral and intravenous): capable of being administered orally and intravenously and well tolerated | concentration at 0.083 h [1]: 1340 ng/mL | concentration at 0.083 h [2]: 1320 ng/mL | concentration at 0.083 h [3]: 1370 ng/mL | concentration at 0.083 h [4]: 1340 ng/mL | concentration at 0.25 h [1]: 1120 ng/mL | concentration at 0.25 h [2]: 954 ng/mL | concentration at 0.25 h [3]: 1110 ng/mL | concentration at 0.25 h [4]: 1060 ng/mL | concentration at 0.5 h [1]: 1040 ng/mL | concentration at 0.5 h [2]: 747 ng/mL | concentration at 0.5 h [3]: 867 ng/mL | concentration at 0.5 h [4]: 885 ng/mL | concentration at 1 h [1]: 623 ng/mL | concentration at 1 h [2]: 580 ng/mL | concentration at 1 h [3]: 520 ng/mL | concentration at 1 h [4]: 574 ng/mL | concentration at 2 h [1]: 314 ng/mL | concentration at 2 h [2]: 265 ng/mL | concentration at 2 h [3]: 313 ng/mL | concentration at 2 h [4]: 297 ng/mL | concentration at 4 h [1]: 81.6 ng/mL | concentration at 4 h [2]: 56.5 ng/mL | concentration at 4 h [3]: 68 ng/mL | concentration at 4 h [4]: 68.7 ng/mL | concentration at 8 h [1]: 15.7 ng/mL | concentration at 8 h [2]: 3.65 ng/mL | concentration at 8 h [3]: 4.61 ng/mL | concentration at 8 h [4]: 8 ng/mL | concentration at 24 h [1]: 0 ng/mL | concentration at 24 h [2]: 0 ng/mL | concentration at 24 h [3]: 0 ng/mL | concentration at 24 h [4]: 0 ng/mL | AUC(0-inf) [5]: 2100 ng·h/mL | AUC(0-t) [5]: 2070 ng·h/mL | C0 [5]: 1460 ng/mL | half-life [5]: 85.2 min | MRT inf [5]: 1.54 h | Vd [5]: 0.734 L/kg | AUC(0-inf) [6]: 1720 ng·h/mL | AUC(0-t) [6]: 1720 ng·h/mL | C0 [6]: 1550 ng/mL | half-life [6]: 58.6 min | MRT inf [6]: 1.29 h | Vd [6]: 0.747 L/kg | AUC(0-inf) [7]: 1870 ng·h/mL | AUC(0-t) [7]: 1860 ng·h/mL | C0 [7]: 1520 ng/mL | half-life [7]: 59.5 min | MRT inf [7]: 1.35 h | Vd [7]: 0.719 L/kg | AUC(0-inf) [8]: 1900 ng·h/mL | AUC(0-t) [8]: 1880 ng·h/mL | C0 [8]: 1510 ng/mL | half-life [8]: 67.8 min | MRT inf [8]: 1.39 h | Vd [8]: 0.733 L/kg | AUC(0-t) [9]: 4520 ng·h/mL | Cmax [9]: 2220 ng/mL | Tmax [9]: 60 min | AUC(0-inf) [10]: 2960 ng·h/mL | AUC(0-t) [10]: 2930 ng·h/mL | Cmax [10]: 1550 ng/mL | Tmax [10]: 30 min | half-life [10]: 69 min | MRT inf [10]: 1.62 h | AUC(0-inf) [11]: 5010 ng·h/mL | AUC(0-t) [11]: 5000 ng·h/mL | Cmax [11]: 2240 ng/mL | Tmax [11]: 60 min | half-life [11]: 50.7 min | MRT inf [11]: 1.83 h | AUC(0-inf) [12]: 3980 ng·h/mL | AUC(0-t) [12]: 4150 ng·h/mL | Cmax [12]: 2000 ng/mL | Tmax [12]: 49.8 min | half-life [12]: 60 min | MRT inf [12]: 1.73 h | AUClast/D [13]: 2066 (ng · h/mL)/(mg/kg) | AUC—% Extrap—obs [13]: 1.54% | Cl_obs [13]: 7.94 mL/min/kg | AUClast/D [14]: 1718 (ng · h/mL)/(mg/kg) | AUC—% Extrap—obs [14]: 0.298% | Cl_obs [14]: 9.67 mL/min/kg | AUClast/D [15]: 1864 (ng · h/mL)/(mg/kg) | AUC—% Extrap—obs [15]: 0.353% | Cl_obs [15]: 8.91 mL/min/kg | AUClast/D [16]: 1883 (ng · h/mL)/(mg/kg) | AUC—% Extrap—obs [16]: 0.73% | Cl_obs [16]: 8.84 mL/min/kg | AUClast/D [17]: 903 (ng · h/mL)/(mg/kg) | F [17]: 48.0% | AUClast/D [18]: 586 (ng · h/mL)/(mg/kg) | AUC—% Extrap—obs [18]: 0.831% | F [18]: 31.1% | AUClast/D [19]: 1000 (ng · h/mL)/(mg/kg) | AUC—% Extrap—obs [19]: 0.232% | F [19]: 52.8% | AUClast/D (dog PK study 1, oral, mean): 830 (ng · h/mL)/(mg/kg) | AUC—% Extrap—obs (dog PK study 1, oral, mean): 0.531% | F (dog PK study 1, oral, mean): 44.0% | animal's temperature (4 h timepoint): 36.4 °C | animal's temperature (6 h timepoint): 38.1 °C
